In patent publication US20230165873A1, “Methods of Use for Single Molecule Compounds Providing Multi-Target Inhibition to Treat Covid 19” (priority 2020, published 2023) one finds IC50 data, which are given here for 22 compounds.

Assay [1] deals with PI3K alpha (Homo sapiens, UniProt P42336). Nature of the assay: PI3K alpha in vitro inhibition. The assay is classed as biochemical. As for the experimental part:
(§1) The kinase or bromodomain inhibitory activity of a compound of the invention can be determined by routine methods known to the skilled artisan without undue experimentation, or by procuring relevant analysis by a commercial vendor offering such services. […] In vivo, PI3K inhibition can be determined from target tissue biopsies by standard tissue processing in which cells are disrupted and Western Blot analysis is performed to determine the presence or absence of pAKT (substrate of PI3K) relative to a control sample. PI3K inhibition assays and BTK inhibition assays are known in the art and can be procured commercially through vendors such as Reaction Biology (Malvern, PA). The activity of a compound of the invention as an inhibitor of a bromodomain-containing protein, such as a BET protein, including BRD2, BRD3, BRD4, and/or BRDT, or an isoform or mutant thereof, may be determined in vitro, in vivo, or in a cell line. In vitro assays include assays that determine inhibition of bromodomain-containing proteins. Alternatively, inhibitor binding may be determined by running a competition experiment where a provided compound is incubated with a bromodomain-containing protein, such as a BET protein bound to known ligands, labeled or unlabeled. In vitro bromodomain inhibition assays can be performed using Alpha Screen Technology (Perkin Elmer Life and Analytical Sciences, Shelton, CT). In vivo bromodomain inhibition can be determined indirectly by evaluating the amount of a protein whose gene transcription is influenced or controlled by the bromodomain protein, for example, MYCN protein transcription is controlled by BRD4 (J.E. Delmore et al., Cell 2011, 146, 904-917; A. Puissant, Cancer Discov. 2013, 3, 308-323).

Assay [2] addresses T1, BRD4-2 (Homo sapiens, UniProt O60885).
T1 construct: BRD4-2
Nature of the assay: BRD4-2 in vitro inhibition. The assay is classed as binding. Here is the method: as §1

Assay [3] deals with T2, BRD4-1 (Homo sapiens, UniProt O60885).
T2 construct: BRD4-1
Nature of the assay: BRD4-1 in vitro inhibition. The assay is classed as binding. As for the experimental part:
as §1

Assay [4] concerns the target PI3K beta (Homo sapiens, UniProt P42338). Nature of the assay: PI3K beta in vitro inhibition. Type of assay: biochemical. As for the experimental part: as §1
Assay [5] concerns the target PI3K gamma (Homo sapiens, UniProt P48736). Nature of the assay: PI3K gamma in vitro inhibition. Type of assay: biochemical. The following applies: read-out: IC50 inhibition PI3K gamma. Here is the method: as §1
(§2) IC50 inhibition data against the indicated targets were determined for compounds of the invention using standard in vitro assays (Tables 8 and 9).

Assay [6] concerns the target CDK6 cyclinD1 (Homo sapiens, UniProt Q00534). Put plainly: CDK6 cyclinD1 in vitro inhibition. The assay is classed as biochemical. As for the experimental part:
as §1, §2

Assay [7] addresses CDK4 cyclinD1 (Homo sapiens, UniProt P11802). Put plainly: CDK4 cyclinD1 in vitro inhibition. Type of assay: biochemical. As for the experimental part: as §1, §2

CDK6 cyclinD1, sequence (Q00534 whole entry): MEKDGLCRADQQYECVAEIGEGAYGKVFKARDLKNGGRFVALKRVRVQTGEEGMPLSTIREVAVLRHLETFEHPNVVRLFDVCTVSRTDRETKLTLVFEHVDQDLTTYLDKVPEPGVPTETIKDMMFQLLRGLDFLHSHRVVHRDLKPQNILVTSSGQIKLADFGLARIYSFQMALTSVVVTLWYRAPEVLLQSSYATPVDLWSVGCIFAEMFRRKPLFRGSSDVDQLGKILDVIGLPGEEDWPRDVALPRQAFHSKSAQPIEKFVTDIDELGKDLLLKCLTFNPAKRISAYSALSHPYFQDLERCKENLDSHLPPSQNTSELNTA
CDK6 cyclinD1, sequence (P24385 whole entry partner): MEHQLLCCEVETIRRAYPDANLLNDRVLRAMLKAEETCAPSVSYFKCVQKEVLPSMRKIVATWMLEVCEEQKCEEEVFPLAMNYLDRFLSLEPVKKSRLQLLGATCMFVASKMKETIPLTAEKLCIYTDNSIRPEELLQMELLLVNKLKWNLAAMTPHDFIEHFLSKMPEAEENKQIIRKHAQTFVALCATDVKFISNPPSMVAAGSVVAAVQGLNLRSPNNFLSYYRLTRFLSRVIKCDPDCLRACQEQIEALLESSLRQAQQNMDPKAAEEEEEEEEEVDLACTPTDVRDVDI
CDK4 cyclinD1, sequence (P11802 whole entry): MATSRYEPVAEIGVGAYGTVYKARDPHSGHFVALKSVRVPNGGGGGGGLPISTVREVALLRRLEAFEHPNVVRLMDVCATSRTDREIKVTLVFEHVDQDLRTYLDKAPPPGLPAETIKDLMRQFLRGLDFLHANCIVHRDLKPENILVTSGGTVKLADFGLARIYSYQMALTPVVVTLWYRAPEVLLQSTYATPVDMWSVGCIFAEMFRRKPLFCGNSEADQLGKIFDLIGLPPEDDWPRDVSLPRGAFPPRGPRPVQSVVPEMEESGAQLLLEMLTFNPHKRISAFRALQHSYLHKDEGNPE
CDK4 cyclinD1, sequence (P24385 whole entry partner): as the sequence (P24385 whole entry partner) above
PI3K gamma, sequence (P48736 whole entry): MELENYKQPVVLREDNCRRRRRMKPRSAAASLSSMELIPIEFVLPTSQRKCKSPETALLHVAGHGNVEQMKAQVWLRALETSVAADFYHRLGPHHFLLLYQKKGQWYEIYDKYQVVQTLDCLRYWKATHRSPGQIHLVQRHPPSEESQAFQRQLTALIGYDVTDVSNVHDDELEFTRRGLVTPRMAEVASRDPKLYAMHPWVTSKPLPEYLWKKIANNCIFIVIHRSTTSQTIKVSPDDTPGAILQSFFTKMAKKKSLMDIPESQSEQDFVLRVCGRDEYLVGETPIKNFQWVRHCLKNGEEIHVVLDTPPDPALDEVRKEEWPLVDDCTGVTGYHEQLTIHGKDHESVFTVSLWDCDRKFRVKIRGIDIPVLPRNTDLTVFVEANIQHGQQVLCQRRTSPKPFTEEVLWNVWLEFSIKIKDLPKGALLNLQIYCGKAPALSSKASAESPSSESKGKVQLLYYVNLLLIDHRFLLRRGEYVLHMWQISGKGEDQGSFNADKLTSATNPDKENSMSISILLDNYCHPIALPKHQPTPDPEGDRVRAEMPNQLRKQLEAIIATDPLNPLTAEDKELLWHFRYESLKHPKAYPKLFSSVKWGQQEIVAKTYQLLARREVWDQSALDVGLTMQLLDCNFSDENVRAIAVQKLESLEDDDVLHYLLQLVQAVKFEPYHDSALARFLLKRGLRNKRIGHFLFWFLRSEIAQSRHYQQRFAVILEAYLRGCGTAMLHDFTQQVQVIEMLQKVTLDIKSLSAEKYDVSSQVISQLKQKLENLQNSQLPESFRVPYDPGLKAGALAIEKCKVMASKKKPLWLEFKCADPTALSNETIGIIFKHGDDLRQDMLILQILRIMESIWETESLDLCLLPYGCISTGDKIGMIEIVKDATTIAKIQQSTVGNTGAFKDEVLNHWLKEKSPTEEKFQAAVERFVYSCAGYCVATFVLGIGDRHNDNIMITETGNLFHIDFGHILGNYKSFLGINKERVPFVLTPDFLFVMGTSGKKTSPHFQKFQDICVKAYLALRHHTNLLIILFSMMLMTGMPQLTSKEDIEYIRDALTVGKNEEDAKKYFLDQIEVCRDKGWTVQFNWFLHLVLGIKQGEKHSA
PI3K beta, sequence (P42338 whole entry): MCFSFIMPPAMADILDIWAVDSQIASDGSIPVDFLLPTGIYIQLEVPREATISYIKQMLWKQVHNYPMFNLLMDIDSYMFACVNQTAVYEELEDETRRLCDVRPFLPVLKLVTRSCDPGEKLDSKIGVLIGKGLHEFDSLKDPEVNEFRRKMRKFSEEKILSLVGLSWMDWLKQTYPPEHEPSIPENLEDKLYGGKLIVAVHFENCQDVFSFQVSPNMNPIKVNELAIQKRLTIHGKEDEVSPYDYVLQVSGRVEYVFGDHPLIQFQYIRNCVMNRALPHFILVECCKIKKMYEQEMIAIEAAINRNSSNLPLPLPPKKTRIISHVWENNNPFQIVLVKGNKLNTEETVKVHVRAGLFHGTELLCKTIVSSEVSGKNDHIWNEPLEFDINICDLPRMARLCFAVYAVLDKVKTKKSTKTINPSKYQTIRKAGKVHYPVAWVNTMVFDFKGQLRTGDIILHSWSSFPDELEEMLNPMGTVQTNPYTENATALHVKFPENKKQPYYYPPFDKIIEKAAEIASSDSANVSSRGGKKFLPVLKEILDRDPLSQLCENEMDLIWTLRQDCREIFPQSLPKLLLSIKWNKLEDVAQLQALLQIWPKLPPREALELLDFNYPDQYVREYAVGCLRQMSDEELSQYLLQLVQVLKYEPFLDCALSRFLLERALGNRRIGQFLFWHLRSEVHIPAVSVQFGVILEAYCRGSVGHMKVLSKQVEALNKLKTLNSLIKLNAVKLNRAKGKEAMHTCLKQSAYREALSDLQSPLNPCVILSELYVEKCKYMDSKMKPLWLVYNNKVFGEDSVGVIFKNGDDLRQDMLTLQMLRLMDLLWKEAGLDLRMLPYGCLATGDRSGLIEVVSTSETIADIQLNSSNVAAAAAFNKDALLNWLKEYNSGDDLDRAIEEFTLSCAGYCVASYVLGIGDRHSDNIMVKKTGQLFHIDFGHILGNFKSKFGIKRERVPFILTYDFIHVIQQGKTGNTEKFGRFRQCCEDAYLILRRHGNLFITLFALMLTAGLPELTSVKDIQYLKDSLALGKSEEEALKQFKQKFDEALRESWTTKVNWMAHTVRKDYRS
PI3K beta, sequence (P27986 whole entry partner): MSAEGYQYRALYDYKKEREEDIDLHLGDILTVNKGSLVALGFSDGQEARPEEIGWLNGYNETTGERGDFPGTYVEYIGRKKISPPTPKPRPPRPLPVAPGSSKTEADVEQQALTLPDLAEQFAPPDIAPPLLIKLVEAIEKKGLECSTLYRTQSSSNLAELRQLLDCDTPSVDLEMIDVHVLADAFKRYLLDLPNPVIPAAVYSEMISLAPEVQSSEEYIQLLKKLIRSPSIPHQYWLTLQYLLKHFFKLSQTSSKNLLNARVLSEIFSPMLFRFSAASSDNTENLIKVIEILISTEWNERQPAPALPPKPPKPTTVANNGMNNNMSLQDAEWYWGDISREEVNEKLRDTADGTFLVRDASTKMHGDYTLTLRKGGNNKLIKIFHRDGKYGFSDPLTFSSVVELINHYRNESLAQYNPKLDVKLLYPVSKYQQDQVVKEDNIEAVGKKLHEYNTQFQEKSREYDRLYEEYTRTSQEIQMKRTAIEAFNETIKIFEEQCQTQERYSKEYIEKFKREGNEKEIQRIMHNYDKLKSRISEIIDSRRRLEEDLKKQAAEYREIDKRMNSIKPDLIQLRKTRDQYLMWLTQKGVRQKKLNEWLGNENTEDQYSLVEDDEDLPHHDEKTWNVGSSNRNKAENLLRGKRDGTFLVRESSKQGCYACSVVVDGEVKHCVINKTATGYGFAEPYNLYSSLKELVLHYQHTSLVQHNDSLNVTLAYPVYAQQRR
PI3K alpha, sequence (P42336 whole entry): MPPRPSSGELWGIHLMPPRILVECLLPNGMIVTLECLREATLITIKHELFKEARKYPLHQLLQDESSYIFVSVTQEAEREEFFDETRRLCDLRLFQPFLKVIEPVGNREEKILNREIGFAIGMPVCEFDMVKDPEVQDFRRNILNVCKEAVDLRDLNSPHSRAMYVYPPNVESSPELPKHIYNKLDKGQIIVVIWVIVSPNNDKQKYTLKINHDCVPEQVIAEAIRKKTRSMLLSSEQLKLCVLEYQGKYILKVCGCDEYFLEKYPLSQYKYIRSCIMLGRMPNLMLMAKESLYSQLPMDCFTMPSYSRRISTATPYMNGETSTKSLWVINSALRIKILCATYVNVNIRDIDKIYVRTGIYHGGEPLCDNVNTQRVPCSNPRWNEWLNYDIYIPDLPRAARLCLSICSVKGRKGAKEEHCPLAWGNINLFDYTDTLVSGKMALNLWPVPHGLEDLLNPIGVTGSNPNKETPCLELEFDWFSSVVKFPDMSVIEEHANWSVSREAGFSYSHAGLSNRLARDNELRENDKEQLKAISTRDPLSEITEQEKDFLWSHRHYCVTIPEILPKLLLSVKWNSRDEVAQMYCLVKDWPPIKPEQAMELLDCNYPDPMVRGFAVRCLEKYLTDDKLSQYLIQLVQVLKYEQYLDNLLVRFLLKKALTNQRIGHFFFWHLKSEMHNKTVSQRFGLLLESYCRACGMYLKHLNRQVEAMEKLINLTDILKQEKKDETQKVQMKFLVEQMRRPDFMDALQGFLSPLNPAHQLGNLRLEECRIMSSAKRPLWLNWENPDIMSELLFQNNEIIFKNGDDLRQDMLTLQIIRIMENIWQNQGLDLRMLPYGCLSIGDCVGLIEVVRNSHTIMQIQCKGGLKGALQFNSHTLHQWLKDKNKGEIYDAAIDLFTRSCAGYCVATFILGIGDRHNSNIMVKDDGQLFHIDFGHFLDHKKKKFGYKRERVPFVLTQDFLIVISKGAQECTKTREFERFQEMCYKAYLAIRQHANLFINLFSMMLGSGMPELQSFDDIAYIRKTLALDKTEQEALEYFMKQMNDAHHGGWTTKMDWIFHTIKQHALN
PI3K alpha, sequence (P27986 whole entry partner): as the sequence (P27986 whole entry partner) above

Consider `O=c1cc(N2CCNCC2)oc2c(-c3ccc4c(c3)OCCO4)csc12` [Compound 1], for which the concentration for half-maximal inhibition (IC50) – broadly, the point on the concentration scale where inhibition reaches its midpoint – in assay [1] was greater than 45000 nM; in assay [2], 10000 to 45000 nM; in assay [3] it was less than 500 nM; in assay [4] it was 10000 to 45000 nM; in assay [5], greater than 45000 nM.
Consider `O=C(NCc1cccnc1)c1cc(-c2csc3c(=O)cc(N4CCOCC4)oc23)cc2c1OCCO2` [Compound 2], for which the IC50 in assay [1], in assay [2], in assay [3], in assay [4] and in assay [5] was less than 500 nM in each case.
For the compound `O=C(NCc1cccnc1)c1cc(-c2csc3c(=O)cc(N4CCNCC4)oc23)cc2c1OCCO2` [Compound 3], the IC50 in assay [1] is 1000 to 10000 nM; in assay [2] it was 1000 to 10000 nM; in assay [3], less than 500 nM; in assay [4], 1000 to 10000 nM; in assay [5], 10000 to 45000 nM.
For the compound `CN1CCN(c2cc(=O)c3scc(-c4cc5c(c(C(=O)NCc6cccnc6)c4)OCCO5)c3o2)CC1` [Compound 4], the concentration for half-maximal inhibition (IC50) was 10000 to 45000 nM in assay [1]; 1000 to 10000 nM in assay [2]; less than 500 nM in assay [3]; 1000 to 10000 nM in assay [4]; 10000 to 45000 nM in assay [5].
With `COC(=O)c1cc(-c2csc3c(=O)cc(N4CCN(C(=O)OC(C)(C)C)CC4)oc23)cc2c1OCCO2` [Compound 5], the IC50 in assay [1] was less than 500 nM; in assay [2], greater than 45000 nM; in assay [3] it was less than 500 nM; in assay [4], 1000 to 10000 nM; in assay [5] it was less than 500 nM.
For `CN(C)C(=O)c1cc2cnc(Nc3ccc(-c4csc5c(=O)cc(N6CCOCC6)oc45)cn3)nc2n1C1CCCC1` [Compound 8], the IC50 in assay [1], in assay [2], in assay [6], in assay [3], in assay [4] and in assay [7] was less than 500 nM in each case. Besides, the IC50 in assay [5] was 500 to 1000 nM.
As to `CN(C)C(=O)c1cc2cnc(Nc3ccc(-c4csc5c(=O)cc(N6CCNCC6)oc45)cc3)nc2n1C1CCCC1` [Compound 9], the IC50 in assay [1] is 10000 to 45000 nM; in assay [2] it was 500 to 1000 nM; in assay [6], less than 500 nM; in assay [3], less than 500 nM; in assay [4] it was 10000 to 45000 nM; in assay [7], less than 500 nM. For the same compound, in assay [5], the IC50 was in the range of 10000 to 45000 nM.
Regarding `CN(C)C(=O)c1cc2cnc(Nc3ccc(-c4csc5c(=O)cc(N6CCN(C(=O)OC(C)(C)C)CC6)oc45)cc3)nc2n1C1CCCC1` [Compound 10], the IC50 is 1000 to 10000 nM in assay [1]; 1000 to 10000 nM in assay [2]; less than 500 nM in assay [6]; 500 to 1000 nM in assay [3]; 500 to 1000 nM in assay [4]; less than 500 nM in assay [7]. In addition, the IC50 in assay [5] lay in the range of 1000 to 10000 nM.
As to `COC(=O)c1cc(-c2csc3c(=O)cc(N4CCOCC4)oc23)ccc1Nc1ncc2cc(C(=O)N(C)C)n(C3CCCC3)c2n1` [Compound 11], the IC50 in assay [1] is less than 500 nM; in assay [2] it was 1000 to 10000 nM; in assay [6], greater than 45000 nM; in assay [3] it was less than 500 nM; in assay [4], less than 500 nM; in assay [7], greater than 45000 nM. Further, the IC50 in assay [5] was 1000 to 10000 nM.
In the case of `CN(C)C(=O)c1cc2cnc(Nc3csc4c(=O)cc(N5CCOCC5)oc34)nc2n1C1CCCC1` [Compound 12], the IC50 in assay [1] is 1000 to 10000 nM; in assay [2], 10000 to 45000 nM; in assay [6], greater than 45000 nM; in assay [3], 10000 to 45000 nM; in assay [4] it was less than 500 nM; in assay [7], 1000 to 10000 nM. The IC50 in assay [5] is greater than 45000 nM.
For `CN(C)C(=O)c1cc2cnc(Nc3ccc(-c4csc5c(=O)cc(N6CCOCC6)oc45)cc3C(=O)O)nc2n1C1CCCC1` [Compound 13], the IC50 is less than 500 nM in assay [1]; 500 to 1000 nM in assay [2]; greater than 45000 nM in assay [6]; 500 to 1000 nM in assay [3]; less than 500 nM in assay [4]; greater than 45000 nM in assay [7]. In addition, the 50% inhibitory concentration (IC50) in assay [5] lay within 500 to 1000 nM.
Take `CN(C)C(=O)c1cc2cnc(Nc3ccc(-c4csc5c(=O)cc(N6CCOCC6)oc45)c(C(=O)O)c3)nc2n1C1CCCC1` [Compound 14]: the IC50 in assay [1] is less than 500 nM; in assay [2] it was 10000 to 45000 nM; in assay [6], 10000 to 45000 nM; in assay [3], greater than 45000 nM; in assay [4] it was less than 500 nM; in assay [7], 10000 to 45000 nM. In assay [5], the IC50 was less than 500 nM.
`CN(C)C(=O)c1cc2cnc(Nc3ccc(-c4csc5c(=O)cc(N6CCOCC6)oc45)c(C(=O)O)c3)nc2n1C1CCCC1` [Compound 15]: the IC50 in assay [1] is less than 500 nM; in assay [2], 10000 to 45000 nM; in assay [6], 500 to 1000 nM; in assay [3], 10000 to 45000 nM; in assay [4], less than 500 nM; in assay [7], 1000 to 10000 nM. In assay [5], the half-inhibitory concentration (IC50) is 1000 to 10000 nM.
Regarding `CNC(=O)c1cc2cnc(Nc3ccc(-c4csc5c(=O)cc(N6CCOCC6)oc45)cc3)nc2n1C1CCCC1` [Compound 16], the IC50 in assay [1], in assay [2], in assay [6], in assay [3], in assay [4] and in assay [7] was less than 500 nM throughout. Further, the IC50 in assay [5] was 1000 to 10000 nM.
For `CNC(=O)c1cc2cnc(Nc3ccc(C#Cc4csc5c(=O)cc(N6CCOCC6)oc45)cc3)nc2n1C1CCCC1` [Compound 17], the concentration for half-maximal inhibition (IC50) was less than 500 nM in assay [1]; 10000 to 45000 nM in assay [2]; less than 500 nM in assay [6]; 1000 to 10000 nM in assay [3]; less than 500 nM in assay [4]; less than 500 nM in assay [7]. In assay [5], the half-inhibitory concentration (IC50) lay within 500 to 1000 nM.
For `CN(C)C(=O)c1cc2cnc(Nc3cccc(-c4csc5c(=O)cc(N6CCOCC6)oc45)c3)nc2n1C1CCCC1` [Compound 18], the 50% inhibitory concentration (IC50) in assay [1] was 500 to 1000 nM; in assay [2], 500 to 1000 nM; in assay [6] it was less than 500 nM; in assay [3] it was 1000 to 10000 nM; in assay [4], less than 500 nM; in assay [7] it was less than 500 nM. Moreover, the half-maximal inhibitory concentration (IC50) in assay [5] was 1000 to 10000 nM.
Regarding `CN(C)C(=O)c1cc2cnc(Nc3cncc(-c4csc5c(=O)cc(N6CCOCC6)oc45)c3)nc2n1C1CCCC1` [Compound 19], the IC50 in assay [1] is 500 to 1000 nM; in assay [2], 1000 to 10000 nM; in assay [6], less than 500 nM; in assay [3], 1000 to 10000 nM; in assay [4], less than 500 nM; in assay [7], less than 500 nM. Besides, in assay [5], the IC50 is 1000 to 10000 nM.
As to `CN(C)C(=O)c1cc2cnc(Nc3cc(C(=O)O)cc(-c4csc5c(=O)cc(N6CCOCC6)oc45)c3)nc2n1C1CCCC1` [Compound 20], the half-inhibitory concentration (IC50) was 1000 to 10000 nM in assay [1]; greater than 45000 nM in assay [2]; greater than 45000 nM in assay [6]; 10000 to 45000 nM in assay [3]; 1000 to 10000 nM in assay [4]; 10000 to 45000 nM in assay [7]. Also, the half-maximal inhibitory concentration (IC50) in assay [5] is greater than 45000 nM.
Consider `CN(C)C(=O)c1cc2cnc(N(c3cncc(-c4csc5c(=O)cc(N6CCOCC6)oc45)c3)c3ncc4cc(C(=O)N(C)C)n(C5CCCC5)c4n3)nc2n1C1CCCC1` [Compound 21], for which the IC50 in assay [1] was 1000 to 10000 nM; in assay [2], 1000 to 10000 nM; in assay [6] it was 500 to 1000 nM; in assay [3], 1000 to 10000 nM; in assay [4], 1000 to 10000 nM; in assay [7], less than 500 nM. Also, the 50% inhibitory concentration (IC50) in assay [5] lay in the range of 10000 to 45000 nM.
Consider `CN(C)C(=O)c1cc2cnc(Nc3ccc(-c4csc5c(=O)cc(N6CCOCC6)oc45)c(C(=O)NCCN)c3)nc2n1C1CCCC1` [Compound 22], for which the concentration for half-maximal inhibition (IC50) is 500 to 1000 nM in assay [1]; 1000 to 10000 nM in assay [2]; less than 500 nM in assay [6]; greater than 45000 nM in assay [3]; less than 500 nM in assay [4]; less than 500 nM in assay [7]. Besides, in assay [5], the concentration for half-maximal inhibition (IC50) is 10000 to 45000 nM.
For `O=C(O)c1cc2cnc(Nc3ccc(-c4csc5c(=O)cc(N6CCOCC6)oc45)cc3)nc2n1C1CCCC1` [Compound 23], the IC50 in assay [1] is less than 500 nM; in assay [2], 1000 to 10000 nM; in assay [6], less than 500 nM; in assay [3], 500 to 1000 nM; in assay [4] it was less than 500 nM; in assay [7], less than 500 nM. Also, the IC50 in assay [5] was less than 500 nM.
Turning to `CN(C)C(=O)c1cc2cnc(N3CCOc4cc(-c5csc6c(=O)cc(N7CCOCC7)oc56)ccc43)nc2n1C1CCCC1` [Compound 24], the IC50 is less than 500 nM in assay [1], less than 500 nM in assay [4], greater than 45000 nM in assay [7] and 1000 to 10000 nM in assay [5].
